Five compounds from patent publication US5215964A, “Peptides useful in regulating the immune and nervous systems” (Immunobiology Research Institute, Inc., priority 1991, dated 1993) can be followed below.

Ends that are not written are not given here. Peptide text beside a SMILES is read from it. * marks the point of attachment. Decanoyl = CCCCCCCCCC(=O)*

One data set in a line: in vitro. As to conditions: rat, real gastrointestinal fluid or homogenate, pH 5.5.
The nature of data set [1]: Enzymatic stability, duodenum in diffusion cell. As to conditions: for intact peptide: rat duodenum, phosphate buffer pH 5.5, 1 mg/mL.
Experimental: (§1) A rat duodenum was opened and attached to a 3.5 mL diffusion cell [Crownglass, N.J.] with buffer in both chambers. The selected test peptide in phosphate buffer (pH 5.5) was applied to both the cells to a final concentration of 1 mg/mL, and samples were taken at 0, 2 and 4 hours. The aliquots were subjected to high performance liquid chromatography (HPLC) with ultraviolet detection at 220 nm. The solvent system for thymopentin was phosphate buffer and methanol.
The test system of a further data set is MOLT-4 T cell line. Kind of data set: Cyclic GMP assay, MOLT-4 cell line. In kind it is cell-based, human. As to conditions: positive = cyclic GMP greater than 2 standard deviations above parallel negative control; peptide 1, 10, 100 μg/mL. From the text: This assay measures the ability of a peptide of this invention to bind to the cell membrane receptor of the intact MOLT-4 cell and selectively stimulate production of cyclic GMP, as does human thymopoietin.
The MOLT-4 cell line was obtained from the American Type Culture Collection of Rockville, Md. MOLT-4 cells were freshly seeded and grown for 3 days with harvesting as described in T. Audhya et al, Arch. Biochem Biophys., 234: 167-177 (1984). The cells were washed 3 times in PBS and resuspended in RPMI 1640 at a concentration of […]; cells/ml and were allowed to equilibrate at 37° C. for 30 minutes before the addition of the test pentapeptides or control peptides, in 25 μl to yield a final concentration of 1, 10, and 100 μg/mL. The incubation was allowed to proceed in a shaking water bath for 4-5 minutes and was then terminated by addition of 1 ml ice-cold TCA (10 percent in H2 O).
The cells in TCA were homogenized and sonicated to release cyclic nucleotide. The suspension was centrifuged at 3000×g for 20 minutes at 4° C. The resulting precipitate was dissolved in 0.1N NaOH to determine the protein content. […]
A threshold activity was determined for each peptide tested. […] Test results were considered positive if the level of cyclic GMP was greater than […] that determined for the parallel negative control.

The subject of the next data set is CEM T cell line. Kind of data set: Cyclic GMP assay, CEM cell line. Conditions: positive = cyclic GMP greater than 2 standard deviations above parallel negative control; peptide 1, 10, 100 μg/mL. In kind it is cell-based, human.
The test system of another data set is γ TP receptor. Put plainly: Neuromuscular (electromyographic) assay. In kind it is in vivo. As to conditions: i.v. or s.c. in mice, electromyography 18 hours after administration. As to the method: The neuromuscular assay is performed to determine the effect, if any, of different peptides and dosages of peptides on the γ TP receptor according to the invention. This assay is carried out as follows. Various doses of a selected peptide of this invention, prepared as described in the preceding examples, are dissolved in normal saline and injected either intravenously (i.v.) or subcutaneously (s.c.) into mice (or other selected laboratory animals). The electromyographic assay is performed according to G. Goldstein et al, J. Jeurol. and Neurosurg. Physchiat., 31:453-459 (1968) 18 hours after administration of the peptide.
Mice of either sex, weighing […], are anesthetized with 150 μl of 5% sodium pentobarbital (Abbott Laboratories, Chicago, Ill.). The nerve is stimulated with a Grass S-48 stimulator and a Grass SIV-5A stimulus isolation unit (Grass Instrument Co., Quincy, Mass.) and the electromyographic response is recorded with a Tektronix storage oscilloscope-5111 coupled to a 5A21N differential amplifier and a 5B10N time base (Tektronix, Beaverton, Oreg.).
Groups of five or more mice are used for each experiment. […] The mean, standard deviation and statistical significance of differences between experimental animals and controls are assessed by one-way analysis of variance based on ratio. […]

Experimental for in vitro: as §1

On to “Ac-RPDPF-NH2 [Acetyl-Arg-Pro-Asp-Pro-Phe-NH2]”, for which, in “in vitro”, the amount remaining (in general, the share of the starting amount still present when the sample was taken) at 2 h, 1 mg/mL is roughly 100% and the fraction remaining at 4 h, 1 mg/mL is roughly 90%.
For the compound RKDVY [TP-5, thymopentin], the figures for the intact peptide in data set [1] (0 hours) and in data set [1] (4 hours) were 100% and “negligible”, respectively. This compound also yielded an amount remaining at 2 h, 1 mg/mL in data set [1] (rat, rat duodenum mounted in a diffusion cell, pH 5.5) of 20%.
For `CCCCCCCCCC(=O)N[C@@H](CCCNC(=N)N)C(=O)N1CCC[C@H]1C(=O)N[C@@H](CC(=O)O)C(=O)N1CCC[C@H]1C(=O)N[C@@H](Cc1ccccc1)C(N)=O` [Decanoyl-Arg-Pro-Asp-Pro-Phe-NH2] (Decanoyl-RPDPF-NH2), the “inducing increased cGMP levels in the human MOLT-4 T cell line (β)” value in the data set with MOLT-4 T cell line was “positive”. The “inducing increased cGMP levels in the human CEM T cell line (α)” value with CEM T cell line is recorded as “positive”. For the same compound, in the data set on γ TP receptor, the “thymopoietin/thymopentin-like results on the neuromuscular assay (γ)” value is listed as “γ-positive”.
Consider “Ac-RPTPY-NH2 [Acetyl-Arg-Pro-Thr-Pro-Tyr-NH2]”, for which the “inducing increased cGMP levels in the human CEM T cell line (α)” value with CEM T cell line was “positive”.
Still for that read-out and setting: to “Ac-RPTPF-NH2 [Acetyl-Arg-Pro-Thr-Pro-Phe-NH2]” belongs “positive”.
